What was measured:
[1] = biological target: hERG (Homo sapiens, UniProt Q12809); assay: Automated patch clamp, hERG current block (consensus step-ramp protocol); settings: for hERG K+ current inhibition, Mean, at maximal concentration: max conc [mol/L]: bep 3.00E-07, cpz 3.00E-06, cis 3.00E-07, dil 1.00E-04, dof 1.00E-07, mex 1.00E-04, ond 1.00E-05, qui 1.00E-05, ran 1.00E-04, sot 3.00E-04, ter 3.00E-07, ver 1.00E-06; for hERG K+ current inhibition, Mean, at minimal concentration: min conc [mol/L]: bep 1.00E-08, cpz 1.00E-07, cis 1.00E-09, dil 3.00E-06, dof 1.00E-09, mex 1.00E-06, ond 3.00E-07, qui 1.00E-07, ran 3.00E-06, sot 1.00E-05, ter 1.00E-08, ver 3.00E-08
hERG, sequence (Q12809 whole entry): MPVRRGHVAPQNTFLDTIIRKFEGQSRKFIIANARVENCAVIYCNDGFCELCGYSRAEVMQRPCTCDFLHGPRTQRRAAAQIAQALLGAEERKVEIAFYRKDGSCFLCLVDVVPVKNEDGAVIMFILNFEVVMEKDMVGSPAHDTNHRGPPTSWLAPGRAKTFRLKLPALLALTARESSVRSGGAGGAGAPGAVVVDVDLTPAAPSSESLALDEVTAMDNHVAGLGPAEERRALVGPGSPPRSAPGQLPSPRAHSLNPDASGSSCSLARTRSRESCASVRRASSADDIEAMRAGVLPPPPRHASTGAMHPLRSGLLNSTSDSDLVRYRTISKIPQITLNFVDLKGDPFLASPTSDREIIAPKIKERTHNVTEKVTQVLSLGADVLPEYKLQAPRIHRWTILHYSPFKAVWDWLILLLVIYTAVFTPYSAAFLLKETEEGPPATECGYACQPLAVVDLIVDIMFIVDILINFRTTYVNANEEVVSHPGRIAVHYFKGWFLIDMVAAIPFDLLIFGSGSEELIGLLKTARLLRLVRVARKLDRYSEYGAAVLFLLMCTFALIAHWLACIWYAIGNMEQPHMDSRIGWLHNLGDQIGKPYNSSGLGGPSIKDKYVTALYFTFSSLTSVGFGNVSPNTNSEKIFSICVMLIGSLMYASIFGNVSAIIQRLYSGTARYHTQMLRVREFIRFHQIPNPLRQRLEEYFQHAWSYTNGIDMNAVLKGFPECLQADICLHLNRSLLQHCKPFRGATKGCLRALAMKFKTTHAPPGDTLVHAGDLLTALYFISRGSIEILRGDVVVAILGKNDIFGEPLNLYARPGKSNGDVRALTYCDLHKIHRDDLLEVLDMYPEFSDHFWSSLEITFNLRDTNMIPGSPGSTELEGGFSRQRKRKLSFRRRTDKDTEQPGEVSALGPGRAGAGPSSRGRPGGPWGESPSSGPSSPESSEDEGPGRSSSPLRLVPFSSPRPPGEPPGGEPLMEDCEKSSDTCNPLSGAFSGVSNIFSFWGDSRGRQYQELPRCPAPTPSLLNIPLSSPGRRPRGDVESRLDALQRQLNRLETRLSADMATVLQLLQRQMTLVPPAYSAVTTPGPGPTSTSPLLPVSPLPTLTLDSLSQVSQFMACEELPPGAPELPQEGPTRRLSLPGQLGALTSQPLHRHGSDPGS

[2] = biological target: T1, peak hNav1.5 (Homo sapiens, UniProt Q14524); assay: Automated patch clamp, peak hNav1.5 current block; type: cell-based
T1 construct: expressed in transfected cells; host or cells: HEK293 or CHO, depending on site
T1 sequence (Q14524 whole entry): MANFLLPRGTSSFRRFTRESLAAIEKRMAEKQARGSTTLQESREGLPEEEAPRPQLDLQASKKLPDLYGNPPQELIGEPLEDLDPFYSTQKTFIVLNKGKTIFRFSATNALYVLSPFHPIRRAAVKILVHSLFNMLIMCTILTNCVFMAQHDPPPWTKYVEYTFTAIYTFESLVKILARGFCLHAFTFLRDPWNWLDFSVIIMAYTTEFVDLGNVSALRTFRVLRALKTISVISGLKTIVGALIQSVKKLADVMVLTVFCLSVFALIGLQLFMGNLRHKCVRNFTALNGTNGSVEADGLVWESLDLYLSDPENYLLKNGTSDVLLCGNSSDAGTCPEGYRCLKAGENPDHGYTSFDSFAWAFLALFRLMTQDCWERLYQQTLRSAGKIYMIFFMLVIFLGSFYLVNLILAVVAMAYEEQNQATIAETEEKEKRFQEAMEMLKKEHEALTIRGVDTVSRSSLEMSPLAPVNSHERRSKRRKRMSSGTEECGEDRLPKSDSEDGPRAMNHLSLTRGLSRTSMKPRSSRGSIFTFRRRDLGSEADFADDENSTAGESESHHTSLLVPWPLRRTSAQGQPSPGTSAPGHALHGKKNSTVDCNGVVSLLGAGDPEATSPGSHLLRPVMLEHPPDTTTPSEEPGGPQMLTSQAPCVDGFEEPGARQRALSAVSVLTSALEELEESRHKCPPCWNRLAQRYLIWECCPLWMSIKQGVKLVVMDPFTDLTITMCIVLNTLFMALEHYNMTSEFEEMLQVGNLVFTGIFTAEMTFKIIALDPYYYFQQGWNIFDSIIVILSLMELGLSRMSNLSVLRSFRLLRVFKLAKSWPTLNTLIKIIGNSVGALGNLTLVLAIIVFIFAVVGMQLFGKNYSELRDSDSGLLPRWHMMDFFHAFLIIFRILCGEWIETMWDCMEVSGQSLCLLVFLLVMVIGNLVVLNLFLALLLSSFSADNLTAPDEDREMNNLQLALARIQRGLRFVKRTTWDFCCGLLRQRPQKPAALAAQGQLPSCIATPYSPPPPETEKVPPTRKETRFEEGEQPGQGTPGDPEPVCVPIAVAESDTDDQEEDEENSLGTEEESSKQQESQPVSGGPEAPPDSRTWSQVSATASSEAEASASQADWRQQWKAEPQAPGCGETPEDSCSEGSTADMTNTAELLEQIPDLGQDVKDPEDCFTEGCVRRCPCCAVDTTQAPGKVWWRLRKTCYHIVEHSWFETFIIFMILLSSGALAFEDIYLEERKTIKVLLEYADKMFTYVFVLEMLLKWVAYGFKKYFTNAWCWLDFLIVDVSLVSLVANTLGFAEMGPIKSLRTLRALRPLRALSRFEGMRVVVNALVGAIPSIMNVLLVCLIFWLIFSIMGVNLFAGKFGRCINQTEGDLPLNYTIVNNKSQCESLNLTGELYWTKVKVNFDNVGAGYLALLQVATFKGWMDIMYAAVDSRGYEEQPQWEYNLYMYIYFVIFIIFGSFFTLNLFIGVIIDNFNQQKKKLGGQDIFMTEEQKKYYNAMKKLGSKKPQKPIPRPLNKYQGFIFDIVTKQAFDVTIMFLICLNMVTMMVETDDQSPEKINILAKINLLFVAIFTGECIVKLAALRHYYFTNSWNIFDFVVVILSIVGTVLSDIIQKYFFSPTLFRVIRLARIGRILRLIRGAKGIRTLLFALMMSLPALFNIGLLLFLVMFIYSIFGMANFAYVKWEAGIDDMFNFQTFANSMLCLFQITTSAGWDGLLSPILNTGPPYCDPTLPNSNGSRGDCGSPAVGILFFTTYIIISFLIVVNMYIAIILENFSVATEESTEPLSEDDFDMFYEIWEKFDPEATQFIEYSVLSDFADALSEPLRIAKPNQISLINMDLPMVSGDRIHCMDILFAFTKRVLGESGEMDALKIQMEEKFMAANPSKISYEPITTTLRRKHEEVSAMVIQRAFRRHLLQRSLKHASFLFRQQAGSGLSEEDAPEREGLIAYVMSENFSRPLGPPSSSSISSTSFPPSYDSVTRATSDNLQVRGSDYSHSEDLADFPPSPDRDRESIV
Method: Peak current was measured during the depolarizing step to −15 mV. Leak current was measured after applying a saturating concentration of a blocker such as lidocaine (2 mM) at the end of each experiment to completely block hNav1.5 current.
Concentration-response relationships for each test article were independently investigated, i.e., each cell received only one test article, typically evaluating multiple concentrations in a cumulative fashion (lowest to highest concentrations). However, some platforms tested only one concentration per well. Each concentration response was based on a minimum of four concentrations, with a minimum of three wells used for each concentration. In cases of high variability, more cells per concentration were recorded. Prior to drug addition, cells received an addition of vehicle to measure non-test article-related effects such as addition artifacts. At the end of the experiment, a supramaximal concentration of a known inhibitory reference compound was applied to assess leak current and appropriate responsiveness of the test system.
The steady state current at each concentration was used to determine the concentration-response relationships. Mean concentration-response data were fitted to a standard sigmoidal four-parameter logistic equation (GraphPad Prism 7; GraphPad Inc., La Jolla, CA) of the form: Y=Bottom+(Top−Bottom)/(1+10^∧(LogIC50−X)∗HillSlope) where Y is the current inhibition (in % of pre-drug control), X is the logarithm of drug concentration, and IC50 is the drug concentration producing half-maximal current inhibition. Curve fitting was performed using the following constraints: Top = 100%, Bottom = 0%, Hill Slope <2. No curve fitting was performed in cases with an obvious lack of a concentration-dependent current inhibition and/or small effect size (approximately ≤20%).

[3] = s03_p2, HEK293, room temperature
[4] = s16_p3, HEK293, room temperature

Structure (SMILES): Cc1cccc(C)c1OCC(C)N (stereo not shown) [mex, mexiletine]
- hERG K+ current nH, Hill slope [1, 3]: 0.95
- hERG K+ current inhibition, Mean, at maximal concentration [1, 3]: 86.8%
- hERG K+ current inhibition, Mean, at minimal concentration [1, 3]: 14.6%
- hERG K+ current nH, Hill slope ([1]; s04_p3, CHO, room temperature): 0.81
- hERG K+ current inhibition, Mean, at maximal concentration ([1]; s04_p3, CHO, room temperature): 67.4%
- hERG K+ current inhibition, Mean, at minimal concentration ([1]; s04_p3, CHO, room temperature): 9.7%
- hERG K+ current log IC50 ([1]; s05_p4, HEK293, 22–24 °C): -4.37 log mol/L
- hERG K+ current nH, Hill slope ([1]; s05_p4, HEK293, 22–24 °C): 1.45
- hERG K+ current inhibition, Mean, at maximal concentration ([1]; s05_p4, HEK293, 22–24 °C): 75.7%
- hERG K+ current nH, Hill slope ([1]; s15_p1, HEK293, 22–23 °C): 0.72
- hERG K+ current inhibition, Mean, at maximal concentration ([1]; s15_p1, HEK293, 22–23 °C): 74.6%
- hERG K+ current inhibition, Mean, at minimal concentration ([1]; s15_p1, HEK293, 22–23 °C): 10.3%
- hERG K+ current nH, Hill slope [1, 4]: 0.76
- hERG K+ current inhibition, Mean, at maximal concentration [1, 4]: 52.6%
- hERG K+ current inhibition, Mean, at minimal concentration [1, 4]: 3.9%
- hERG K+ current nH, Hill slope ([1]; s18_p1, CHO, 35 °C): 1.12
- hERG K+ current inhibition, Mean, at maximal concentration ([1]; s18_p1, CHO, 35 °C): 70.4%
- hERG K+ current inhibition, Mean, at minimal concentration ([1]; s18_p1, CHO, 35 °C): -1.2%
- hERG K+ current nH, Hill slope ([1]; s19_p3, CHO, room temperature): 0.84
- hERG K+ current inhibition, Mean, at maximal concentration ([1]; s19_p3, CHO, room temperature): 58.4%
- hERG K+ current inhibition, Mean, at minimal concentration ([1]; s19_p3, CHO, room temperature): 4.2%
- nH (Hill slope), hERG K+ current inhibition ([1]; site_platform s07_p5): 1.95
- nH (Hill slope), hERG K+ current inhibition ([1]; site_platform s10_p3): 1.32
- nH (Hill slope), hERG K+ current inhibition ([1]; site_platform s11_p1): 0.41
- nH (Hill slope), hERG K+ current inhibition ([1]; site_platform s12_p2): 1.12
- nH (Hill slope), hERG K+ current inhibition ([1]; site_platform s13_p2): 1.01
- nH (Hill slope), hERG K+ current inhibition ([1]; site_platform s14_p1): 0.63
- hNav1.5 IC50 variability (25/75 percentiles) ([2]; across sites and platforms): 4 fold
- nH (Hill slope), peak hNav1.5 Na+ current inhibition ([2]; site_platform s01_p1): 0.31
- Peak hNav1.5 Na+ current inhibition, Mean ([2]; site_platform s01_p1, 1.00E-04 mol/L): 89.8%
- Peak hNav1.5 Na+ current inhibition, Mean ([2]; site_platform s01_p1, 1.00E-06 mol/L): 57.9%
- nH (Hill slope), peak hNav1.5 Na+ current inhibition ([2]; site_platform s02_p2): 0.99
- Peak hNav1.5 Na+ current inhibition, Mean ([2]; site_platform s02_p2, 1.00E-04 mol/L): 54.9%
- Peak hNav1.5 Na+ current inhibition, Mean ([2]; site_platform s02_p2, 1.00E-06 mol/L): -1.5%
- nH (Hill slope), peak hNav1.5 Na+ current inhibition ([2]; site_platform s04_p3): 0.51
- Peak hNav1.5 Na+ current inhibition, Mean ([2]; site_platform s04_p3, 1.00E-04 mol/L): 47.7%
- Peak hNav1.5 Na+ current inhibition, Mean ([2]; site_platform s04_p3, 1.00E-06 mol/L): 8.8%
- nH (Hill slope), peak hNav1.5 Na+ current inhibition ([2]; site_platform s06_p4): 1.28
- Peak hNav1.5 Na+ current inhibition, Mean ([2]; site_platform s06_p4, 1.00E-04 mol/L): 62.4%
- Peak hNav1.5 Na+ current inhibition, Mean ([2]; site_platform s06_p4, 1.00E-06 mol/L): 2.4%
- nH (Hill slope), peak hNav1.5 Na+ current inhibition ([2]; site_platform s07_p6): 0.86
- Peak hNav1.5 Na+ current inhibition, Mean ([2]; site_platform s07_p6, 1.00E-04 mol/L): 79.8%
- Peak hNav1.5 Na+ current inhibition, Mean ([2]; site_platform s07_p6, 1.00E-06 mol/L): 7.1%
- nH, Hill slope, peak hNav1.5 inhibition ([2]; site_platform s10_p3): 0.84
- Peak hNav1.5 Na+ current inhibition, Mean ([2]; site_platform s10_p3, 1.00E-04 mol/L): 53.9%
- Peak hNav1.5 Na+ current inhibition, Mean ([2]; site_platform s10_p3, 1.00E-06 mol/L): 6.6%
- nH, Hill slope, peak hNav1.5 inhibition ([2]; site_platform s11_p1): 0.56
- Peak hNav1.5 Na+ current inhibition, Mean ([2]; site_platform s11_p1, 1.00E-04 mol/L): 50.8%
- Peak hNav1.5 Na+ current inhibition, Mean ([2]; site_platform s11_p1, 1.00E-06 mol/L): 10.7%
- nH, Hill slope, peak hNav1.5 inhibition ([2]; site_platform s12_p2): 0.72
- Peak hNav1.5 Na+ current inhibition, Mean ([2]; site_platform s12_p2, 1.00E-04 mol/L): 58.7%
- Peak hNav1.5 Na+ current inhibition, Mean ([2]; site_platform s12_p2, 1.00E-06 mol/L): 4.9%
- nH, Hill slope, peak hNav1.5 inhibition ([2]; site_platform s13_p2): 0.89
- Peak hNav1.5 Na+ current inhibition, Mean ([2]; site_platform s13_p2, 1.00E-04 mol/L): 50.5%
- Peak hNav1.5 Na+ current inhibition, Mean ([2]; site_platform s13_p2, 1.00E-06 mol/L): 2.3%
- nH, Hill slope, peak hNav1.5 inhibition ([2]; site_platform s14_p1): 0.84
- Peak hNav1.5 Na+ current inhibition, Mean ([2]; site_platform s14_p1, 1.00E-04 mol/L): 65.7%
- Peak hNav1.5 Na+ current inhibition, Mean ([2]; site_platform s14_p1, 1.00E-06 mol/L): 6.3%
- nH, Hill slope, peak hNav1.5 inhibition ([2]; site_platform s15_p1): 0.56
- Peak hNav1.5 Na+ current inhibition, Mean ([2]; site_platform s15_p1, 1.00E-04 mol/L): 88.2%
- Peak hNav1.5 Na+ current inhibition, Mean ([2]; site_platform s15_p1, 1.00E-06 mol/L): 30.6%
- nH, Hill slope, peak hNav1.5 inhibition ([2]; site_platform s16_p3): 0.69
- Peak hNav1.5 Na+ current inhibition, Mean ([2]; site_platform s16_p3, 1.00E-04 mol/L): 43.0%
- Peak hNav1.5 Na+ current inhibition, Mean ([2]; site_platform s16_p3, 1.00E-06 mol/L): 5.6%
- nH, Hill slope, peak hNav1.5 inhibition ([2]; site_platform s17_p1): 0.83
- Peak hNav1.5 Na+ current inhibition, Mean ([2]; site_platform s17_p1, 1.00E-04 mol/L): 75.6%
- Peak hNav1.5 Na+ current inhibition, Mean ([2]; site_platform s17_p1, 1.00E-06 mol/L): 10.3%
- nH, Hill slope, peak hNav1.5 inhibition ([2]; site_platform s18_p1): 0.98
- Peak hNav1.5 Na+ current inhibition, Mean ([2]; site_platform s18_p1, 1.00E-04 mol/L): 83.9%
- Peak hNav1.5 Na+ current inhibition, Mean ([2]; site_platform s18_p1, 1.00E-06 mol/L): 6.1%
- nH, Hill slope, peak hNav1.5 inhibition ([2]; site_platform s19_p3): 0.51
- Peak hNav1.5 Na+ current inhibition, Mean ([2]; site_platform s19_p3, 1.00E-04 mol/L): 55.6%
- Peak hNav1.5 Na+ current inhibition, Mean ([2]; site_platform s19_p3, 1.00E-06 mol/L): 12.4%
